Data on nine molecules can be found in article PMC6167110, “NgcE^Sco Acts as a Lower-Affinity Binding Protein of an ABC Transporter for the Uptake of N,N′-Diacetylchitobiose in Streptomyces coelicolor A3(2)” (Microbes and Environments, 2018).

By Kd is commonly meant the concentration at which binding is half-saturated. A lower Kd goes with higher affinity.

Data set [1] deals with T1, NgcE^Sco (SCO6005) (Streptomyces coelicolor, UniProt O50499).
T1 construct: without putative signal peptide (29 N-terminal residues); from E. coli
T1 sequence (O50499 30-469): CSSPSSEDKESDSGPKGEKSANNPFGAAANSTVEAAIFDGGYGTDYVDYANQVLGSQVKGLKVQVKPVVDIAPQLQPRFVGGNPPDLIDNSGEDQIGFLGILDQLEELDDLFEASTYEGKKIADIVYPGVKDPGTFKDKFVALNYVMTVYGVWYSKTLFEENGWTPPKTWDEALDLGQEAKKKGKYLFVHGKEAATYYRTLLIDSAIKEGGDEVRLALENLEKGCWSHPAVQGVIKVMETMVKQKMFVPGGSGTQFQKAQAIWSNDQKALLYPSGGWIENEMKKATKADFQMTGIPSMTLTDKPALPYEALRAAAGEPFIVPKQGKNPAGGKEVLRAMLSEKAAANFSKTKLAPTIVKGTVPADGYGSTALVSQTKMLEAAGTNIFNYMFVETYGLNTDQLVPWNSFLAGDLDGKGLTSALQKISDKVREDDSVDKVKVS
In words: intrinsic protein fluorescence titration. The format is binding.

The target of a further data set is T2, DasR (DasR-6His) (Streptomyces coelicolor, UniProt Q9K492).
T2 construct: DasR-6His from pFT240, expressed in E. coli BL21(DE3), Ni-agarose purified
Briefly: EMSA, inhibition of DasR binding to dre^ngcE DNA. As to conditions: Cy5-labeled dre^ngcE DNA probe; allosteric. In general terms: Mobility shift assays separate free from complexed probe on a gel.

Data set [2] has as its target T1, NgcE^Sco (SCO6005). Briefly: isothermal titration calorimetry. As to conditions: 20 mM Tris/HCl pH 8.0, 30°C; single-site fit. Format: binding. The text has this:
isothermal titration calorimetry on NgcE^Sco (SCO6005)
Background: ITC needs no label: the signal is the heat of the interaction.

The target in data set [3] is T3, NgcE of S. olivaceoviridis (Streptomyces olivaceoviridis, UniProt Q8RJV0).
T3 construct: N-terminally His-tagged, from E. coli carrying pQEH301
T3 sequence (Q8RJV0 47-489): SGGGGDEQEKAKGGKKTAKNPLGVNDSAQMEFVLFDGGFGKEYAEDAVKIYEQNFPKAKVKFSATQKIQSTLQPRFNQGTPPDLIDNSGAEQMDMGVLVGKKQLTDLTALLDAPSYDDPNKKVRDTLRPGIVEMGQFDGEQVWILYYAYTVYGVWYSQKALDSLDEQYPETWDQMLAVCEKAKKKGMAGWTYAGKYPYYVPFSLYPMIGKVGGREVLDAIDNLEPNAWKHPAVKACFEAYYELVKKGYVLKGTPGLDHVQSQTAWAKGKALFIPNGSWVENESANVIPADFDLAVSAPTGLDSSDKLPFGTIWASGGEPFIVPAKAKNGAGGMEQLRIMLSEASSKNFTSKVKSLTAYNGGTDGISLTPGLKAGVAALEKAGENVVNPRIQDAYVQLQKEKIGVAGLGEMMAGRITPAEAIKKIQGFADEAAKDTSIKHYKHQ
In words: intrinsic protein fluorescence titration. Format: binding. The settings on record: fluorescence increase.

For another data set, the target named is T4, DasR-6His (Streptomyces coelicolor A3(2), UniProt Q9K492 1-254).
T4 sequence: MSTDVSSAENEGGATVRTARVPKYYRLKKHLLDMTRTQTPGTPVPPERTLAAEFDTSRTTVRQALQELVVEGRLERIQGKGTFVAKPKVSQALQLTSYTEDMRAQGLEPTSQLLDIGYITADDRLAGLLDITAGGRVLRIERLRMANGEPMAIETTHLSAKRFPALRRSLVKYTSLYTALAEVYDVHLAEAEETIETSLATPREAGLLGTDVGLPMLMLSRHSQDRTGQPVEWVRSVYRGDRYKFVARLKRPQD
Briefly: EMSA; EMSA: Cy5 probe ~0.1 mM and DasR-6His ~1 mM (so in the source); probably uM) in 50 uL, 1% agarose gel; buffer, salt, pH and temperature not given. The settings on record: protein: recombinant; tags: C-terminal 6xHis; chain copies: 2; label: Cy5 on the printed strand; blunt.

In the case of `CC(=O)N[C@H]1C(O)O[C@H](CO)[C@@H](O)[C@@H]1O[C@H](C)C(=O)O` (stereo partly shown) [MurNAc], at NgcE^Sco (SCO6005) [1], the Kd was determined as 25000 nM.

For `N[C@H]1C(O)O[C@H](COP(=O)(O)O)[C@@H](O)[C@@H]1O` (stereo partly shown) [GlcN-6P], the “EMSA, inhibition of DasR binding to dre^ngcE DNA” value at DasR (DasR-6His) was “binding of DasR to the dre^ngcE-containing probe was inhibited by GlcNAc-6P and GlcN-6P”. `CC(=O)N[C@H]1C(O)O[C@H](CO)[C@@H](O)[C@@H]1O` (stereo partly shown) [GlcNAc]: the results for the Kd (at NgcE^Sco (SCO6005) [2]; in data set [3]) were 1150 nM and 85 nM, respectively.

As to `CC(=O)N[C@H]1C(O)O[C@H](COP(=O)(O)O)[C@@H](O)[C@@H]1O` (stereo partly shown) [GlcNAc-6P], on DasR (DasR-6His), the “EMSA, inhibition of DasR binding to dre^ngcE DNA” value was “binding of DasR to the dre^ngcE-containing probe was inhibited by GlcNAc-6P and GlcN-6P”.

Regarding `CC(=O)N[C@H]1[C@H](O[C@H]2[C@H](O)[C@@H](NC(C)=O)C(O)O[C@@H]2CO)O[C@H](CO)[C@@H](O)[C@@H]1O` (stereo partly shown) [(GlcNAc)2], the affinity on NgcE^Sco (SCO6005) [2], expressed as Kd, was 1530 nM. `CC(=O)N[C@H]1C(O)O[C@H](CO)[C@H](O)[C@@H]1O` (stereo partly shown) [GalNAc] registered a Kd on NgcE^Sco (SCO6005) [1] of 12000 nM.

B1: dredasA (dsDNA)
DNA 1: CAAGCTCCCCGTACTGGTCTACACCATTGGTCCAGGTCCC
DNA 2: GGGACCTGGACCAATGGTGTAGACCAGTACGGGGAGCTTG
For B1, the binding result with DasR-6His is recorded as “binds”.

B2: drengcE (dsDNA)
DNA 1: CCGCCAAGCGAAAGTGGACTATACCTGTCGGCACTCCGGG
DNA 2: CCCGGAGTGCCGACAGGTATAGTCCACTTTCGCTTGGCGG
B2: the binding result in the data set with DasR-6His is reported as “binds”.

B3: drenagKA (dsDNA)
DNA 1: CGTACACCCGGGAGAGGTCTAGTCCACTGCGGTGGTGTAG
DNA 2: CTACACCACCGCAGTGGACTAGACCTCTCCCGGGTGTACG
On to B3, for which, in the data set with DasR-6His, the binding result is on record as “binds”.
